Read-outs that look alike come from different tables or passages of the source.
Target: T1, human GPR119 (Homo sapiens, UniProt Q8TDV5)
T1 sequence (Q8TDV5 1-335): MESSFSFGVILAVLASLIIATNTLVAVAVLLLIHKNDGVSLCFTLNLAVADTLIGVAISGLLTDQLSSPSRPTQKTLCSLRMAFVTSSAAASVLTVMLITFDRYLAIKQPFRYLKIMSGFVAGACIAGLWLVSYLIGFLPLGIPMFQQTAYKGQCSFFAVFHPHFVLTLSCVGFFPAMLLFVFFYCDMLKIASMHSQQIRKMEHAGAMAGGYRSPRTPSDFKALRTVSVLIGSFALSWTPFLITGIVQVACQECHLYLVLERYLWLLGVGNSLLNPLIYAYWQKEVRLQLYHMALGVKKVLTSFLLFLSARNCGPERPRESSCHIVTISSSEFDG
Assay: Intracellular cAMP increase in human GPR119 introduced cells (Pharmacological Experiments 1 and 2)
Format: cell-based
Conditions: for GPR119 agonist effect: result in words, refers to Tables 12 and 13
Text: The GPR119 agonist effect is studied by measuring the effect of an analyte on increase of intracellular amount of cAMP in human GPR119 introduced cells. The testing method is described below.
Human GPR119 gene (NM 178471) is purchased from ATCC (ATCC No. 10807349), and is amplyfied according to PCR to form BamHI site at 5′ side and Apa I site at 3′ side. The forward side primer is […] (sequence No. 1), and the reverse side primer is […] (sequence No. 2). The PCR conditions are described below.
(§1) The double-stranded DNA is thermally denatured using a DNA polymerase (KOD-Plus-Ver. 2; TOYOBO #KOD-211) at 98° C. for 10 seconds in one cycle. The denatured single-stranded DNA is annealed with the primers at 55° C. for 30 seconds. The DNA is subjected to an extension reaction at 68° C. for 1 minute and 15 seconds. The above-mentioned steps are repeated in 35 cycles. The PCR product is inserted into pcDNA5/FRT/TO (Invitrogen #V6520-20) plasmid. Flp-in T-Rex-293 cells (Invitorogen #R78007) are transfected with the obtained plasmid. The method of transfection is conducted in accordance with the protocol of the product.
The stable cell line expressing human GPR119 prepared in the above-mentioned method is plated on a 96-well plate at the concentration of 2,500 cells/well using Dulbecco's Modified Eagle Medium (DMEM) containing 10% fetal bovine serum (FBS). Twenty-four hours after plating, tetracyclin (Invitrogen #Q10019) is added at the final concentration of 20 ng/mL to induce hGPR119 gene expression. Twenty-four hours after, the medium is removed, and the cells are stimulated with an assay buffer (0.5 mM IBMX PBS(−)) containing the test compound at 37° C. for 30 minutes. The amount of the intracellular cAMP is measured using a commercially available kit (HitHunter™ cAMP XS+ Assay: GE Healthcare #90007503) and a reader (FLUOstar Optima: BMG LABTECH). The test compound is dissolved in 100% DMSO, and added at the final concentration of 1%.
Human GPR119 gene (NM 178471) was purchased from ATCC (ATCC No. 10807349), and is amplyfied according to PCR to form BamHI site at 5′ side and Apa I site at 3′ side. The primers were […] (sequence No. 1) and […] (sequence No. 2). The PCR conditions are described below.
as §1, with “was” for “is”, “were” for “are”
The stable cell line expressing human GPR119 prepared in the above-mentioned method was plated on a 96-well plate at the concentration of 2,500 cells/well using Dulbecco's Modified Eagle Medium (DMEM) containing 10% fetal bovine serum (FBS). Twenty-four hours after plating, tetracyclin (Invitrogen #Q10019) was added at the final concentration of 20 ng/mL to induce hGPR119 gene expression. Twenty-four hours after, the medium was removed, and the cells were stimulated with an assay buffer (0.5 mM IBMX PBS (−)) containing the test compound at 37° C. for 30 minutes. The amount of the intracellular cAMP was measured using a commercially available kit (HitHunter™ cAMP XS+ Assay: GE Healthcare #90007503) and a reader (FLUOstar Optima: BMG LABTECH). The test compound was dissolved in 100% DMSO, and added at the final concentration of 1%.
The examination was performed by the method similar to Example 61 Pharmacological experiment 1-(1), 1-(2).

[1] = Table 12, Flp-in T-Rex-293 cells stably expressing hGPR119, intracellular cAMP, 37° C. for 30 minutes, read-out: EC50
[2] = Table 13, Pharmacological experiment 2, method similar to Example 61, read-out: EC50

## CC(C)(C)OC(=O)N1CCC(c2cnc(COc3ccc(S(C)(=O)=O)cc3)nc2)CC1 [Example 1, tert-Butyl 4-[2-(4-methanesulfonylphenoxymethyl)pyrimidin-5-yl]piperidine-1-carboxylate]
[1]
  EC50: 313 nM

## CC(C)(C)OC(=O)N1CC=C(c2cnc(COc3ccc(S(C)(=O)=O)cc3)cn2)CC1 [Example 2, tert-Butyl 4-[5-(4-methanesulfonylphenoxymethyl)pyrazin-2-yl]-3,6-dihydro-2H-pyridine-1-carboxylate]
  EC50: 76.5 nM

## CC(C)(C)OC(=O)N1CCC(c2cnc(COc3ccc(S(C)(=O)=O)cc3)cn2)CC1 [Example 3, tert-Butyl 4-[5-(4-methanesulfonylphenoxymethyl)pyrazin-2-yl]piperidine-1-carboxylate]
  EC50: 74.6 nM

## CC(C)(C)OC(=O)N1CCC(c2cnc(Cn3ccc4cc(S(C)(=O)=O)ccc43)nc2)CC1 [Example 4, tert-Butyl 4-[2-(5-methanesulfonylindol-1-ylmethyl)pyrimidin-5-yl]piperidine-1-carboxylate]
  EC50: 62.4 nM

## CC(C)(C)OC(=O)N1C2C=C(c3cnc(COc4ccc(S(C)(=O)=O)cc4)cn3)CC1CC2 (centres unmarked) [Example 10, tert-Butyl 3-[5-(4-methanesulfonylphenoxymethyl)pyrazin-2-yl]-8-azabicyclo[3.2.1]oct-2-ene-8-carboxylate]
  EC50: 99.8 nM

## CC(C)(C)OC(=O)N1C2CCC1CC(c1cnc(COc3ccc(S(C)(=O)=O)cc3)cn1)C2 (centres unmarked) [Example 11, tert-Butyl 3-[5-(4-methanesulfonylphenoxymethyl)pyrazin-2-yl]-8-azabicyclo[3.2.1]octane-8-carboxylate]
  EC50: 67.3 nM

## CC(C)(C)OC(=O)N1CC=C(c2cnc(COc3ccc(-n4cnnn4)cc3F)cn2)CC1 [Example 12, tert-Butyl 4-[5-[2-fluoro-4-(tetrazol-1-yl)phenoxymethyl]pyrazin-2-yl]-3,6-dihydro-2H-pyridine-1-carboxylate]
  EC50: 56.4 nM

## CC1CN(C(=O)OC(C)(C)C)CC=C1c1cnc(Cn2ccc3cc(S(C)(=O)=O)cnc32)cn1 (centres unmarked) [Example 15, tert-Butyl 4-[5-(5-methanesulfonyl-1H-pyrrolo[2,3-b]pyridin-1-ylmethyl)pyrazin-2-yl]-3-methyl-3,6-dihydro-2H-pyridine-1-carboxylate]
[1]
  EC50: 126 nM

## CC1CN(C(=O)OC(C)(C)C)CC=C1c1cnc(COc2ccc(-n3cncn3)cc2)cn1 (centres unmarked) [Example 17, tert-Butyl 3-methyl-4-[5-[4-(1,2,4-triazol-1-yl)phenoxymethyl]pyrazin-2-yl]-3,6-dihydro-2H-pyridine-1-carboxylate]
[1]
  EC50: 124 nM

## CC1CN(C(=O)OC(C)(C)C)CC=C1c1cnc(Cn2ccc3c(F)c(S(C)(=O)=O)c(F)cc32)cn1 (centres unmarked) [Example 19, tert-Butyl 4-[5-(4,6-difluoro-5-methanesulfonylindol-1-ylmethyl)pyrazin-2-yl]-3-methyl-3,6-dihydro-2H-pyridine-1-carboxylate]
  EC50: 82.8 nM

## CC(C)(C)OC(=O)N1CC=C(c2cnc(Cn3ccc4cc(S(C)(=O)=O)c(F)c(F)c43)cn2)CC1 [Example 20, tert-Butyl 4-[5-(6,7-difluoro-5-methanesulfonylindol-1-ylmethyl)pyrazin-2-yl]-3,6-dihydro-2H-pyridine-1-carboxylate]
  EC50: 21.9 nM
  GPR119 agonist effect: excellent GPR119 agonist effect

## CC1CN(C(=O)OC(C)(C)C)CC=C1c1cnc(Cn2ccc3cc(S(C)(=O)=O)c(F)c(F)c32)cn1 (centres unmarked) [Example 21, tert-Butyl 4-[5-(6,7-difluoro-5-methanesulfonylindol-1-ylmethyl)pyrazin-2-yl]-3-methyl-3,6-dihydro-2H-pyridine-1-carboxylate]
  EC50: 21.4 nM
  GPR119 agonist effect: excellent GPR119 agonist effect

## CC1CN(C(=O)OC(C)(C)C)CC=C1c1cnc(COc2ccc(S(C)(=O)=O)c(F)c2F)nc1 (centres unmarked) [Example 24, tert-Butyl 4-[2-(2,3-difluoro-4-methanesulfonylphenoxymethyl)pyrimidin-5-yl]-3-methyl-3,6-dihydro-2H-pyridine-1-carboxylate]
[1]
  EC50: 111 nM

## CC(C)(C)OC(=O)N1CCC(c2cnc(Cn3ccc4cc(S(C)(=O)=O)cc(F)c43)cn2)CC1 [Example 28, tert-Butyl 4-[5-(7-fluoro-5-methanesulfonylindol-1-ylmethyl)pyrazin-2-yl]piperidine-1-carboxylate]
  EC50: 7.6 nM
  GPR119 agonist effect: excellent GPR119 agonist effect

## CC(C)OC(=O)N1CC=C(c2cnc(Cn3ccc4cc(S(C)(=O)=O)c(F)c(F)c43)cn2)C(C)C1 (centres unmarked) [Example 29, Isopropyl 4-[5-(6,7-difluoro-5-methanesulfonylindol-1-ylmethyl)pyrazin-2-yl]-3-methyl-3,6-dihydro-2H-pyridine-1-carboxylate]
  EC50: 35.7 nM

## CC(C)OC(=O)N1CC=C(c2cnc(Cn3ccc4c(F)c(S(C)(=O)=O)c(F)cc43)cn2)C(C)C1 (centres unmarked) [Example 30, Isopropyl 4-[5-(4,6-difluoro-5-methanesulfonylindol-1-ylmethyl)pyrazin-2-yl]-3-methyl-3,6-dihydro-2H-pyridine-1-carboxylate]
[2]
  EC50: 137 nM

## CC(C)(C)OC(=O)N1CCC(c2cnc(Cn3ccc4cc(-n5cnnn5)cc(F)c43)cn2)CC1 [Example 34, tert-Butyl 4-[5-[7-fluoro-5-(tetrazol-1-yl)indol-1-ylmethyl]pyrazin-2-yl]piperidine-1-carboxylate]
  EC50: 2.9 nM
  GPR119 agonist effect: excellent GPR119 agonist effect

## CC(C)OC(=O)N1CCC(c2cnc(Cn3ccc4cc(-n5cnnn5)cc(F)c43)cn2)CC1 [Example 38, Isopropyl 4-[5-[7-fluoro-5-(tetrazol-1-yl)indol-1-ylmethyl]pyrazin-2-yl]piperidine-1-carboxylate]
  EC50: 16.5 nM

## CCc1cnc(N2CCC(c3cnc(Cn4ccc5cc(-n6cnnn6)cc(F)c54)cn3)CC2)nc1 [Example 42, 5-Ethyl-2-[4-[5-[7-fluoro-5-(tetrazol-1-yl)indol-1-ylmethyl]pyrazin-2-yl]piperidin-1-yl]pyrimidine]
[2]
  EC50: 3.1 nM
  GPR119 agonist effect: excellent GPR119 agonist effect

## CC(C)(C)OC(=O)N1CCC(c2cnc(Cn3ccc4cc(S(C)(=O)=O)cnc43)nc2)CC1 [Example 46, tert-Butyl 4-[2-(5-methanesulfonyl-1H-pyrrolo[2,3-b]pyridin-1-ylmethyl)pyrimidin-5-yl]piperidine-1-carboxylate]
  EC50: 95 nM

## CC(C)(C)OC(=O)N1CCC(c2cnc(Cn3ccc4cc(-n5cnnn5)cc(F)c43)nc2)CC1 [Example 49, tert-Butyl 4-[2-[7-fluoro-5-(tetrazol-1-yl)indol-1-ylmethyl]pyrimidin-5-yl]piperidine-1-carboxylate]
  EC50: 30.1 nM
